Data on five compounds can be found in US6461997B1, “Triazole sulfones having herbicidal activity” (Monsanto Technology LLC, priority 1999, dated 2002).

One assay has as its system ALOMY (blackgrass). Description: Pre-emergence herbicidal activity, cool season. The class given is in vivo, Alopecurus myosuroides. As to conditions: GR80 = lowest tested rate (300, 100, 30, 10 g/ha) with 80% or greater inhibition; approx. 14 days after treating; 18/13° C. The protocol:
(§1) Tables 5 to 8 summarize results of tests conducted as described below to determine the pre-emergence herbicidal activity, in the form of a GR80 value, of illustrative compounds of this invention. […] Compounds of the invention were typically applied at rates of 300, 100, 30, and 10 g/ha. Where herbicidal activity was evident but 80% inhibition was not achieved at the highest rate tested, an asterisk (*) is shown in the following tables.
(§2) The pre-emergence tests were conducted by the following procedure. Topsoil was sieved to pass through a 1.27 cm screen. Fertilizer was added to the topsoil and the mixture was then sterilized by heating. The topsoil mixture was placed in a pot and compacted to a depth of 1.0 to 1.25 cm from the top of the pot. Seeds of each of several monocotyledonous and dicotyledonous annual plant species were placed on top of the soil. Additional soil was subsequently placed over the seeds to level-fill the pot. A known amount of each test compound dissolved or suspended in an appropriate organic solvent was diluted with a 50:50 mix of acetone and water and applied to the surface of the soil. After treatment the plants were placed in a greenhouse where they received 0.64 cm of overhead irrigation. All subsequent watering consisted of a light overhead mist and/or subirrigation as needed for germination and growth. Tables 5 and 6 below relate to warm season plant species which were placed after pre-emergence treatment in a greenhouse with a 30/21° C. day/night temperature regime. Tables 7 and 8 below relates to cool season plant species placed after pre-emergence treatment in a greenhouse or growth chamber with an 18/13° C. day/night temperature regime.
(§3) Approximately 14 days after planting and treating, the plants were observed and herbicidal efficacy recorded as percent inhibition by comparison with untreated plants.
(§4) The plant species usually regarded as weeds which were utilized in the tests are identified in the tables below according to the following legend, in which “d” indicates a dicotyledonous species and “m” a monocotyledonous species. All monocotyledonous species included in the tests herein are grasses.

In assay [1] the test system is PANMI (wild proso millet). Description: Pre-emergence herbicidal activity, warm season. The class given is in vivo, Panicum miliaceum. To be noted: GR80 = lowest tested rate (300, 100, 30, 10 g/ha) with 80% or greater inhibition; approx. 14 days after treating; 30/21° C. The protocol:
as §1, §2, §3, §4

Assay [2] deals with LAMPU (purple deadnettle). Briefly: Pre-emergence herbicidal activity, cool season. The class given is in vivo, Lamium purpureum. To be noted: lowest tested rate with 80% or greater inhibition; rates 300, 100, 30, 10 g/ha; about 14 days. The protocol: as §1, §2, §3, §4
The subject of a further assay is STEME (common chickweed). Description: Pre-emergence herbicidal activity, cool season. The class given is in vivo, Stellaria media. To be noted: lowest tested rate with 80% or greater inhibition; rates 300, 100, 30, 10 g/ha; about 14 days. The protocol:
as §1, §2, §3, §4

A further assay deals with POLCO (wild buckwheat). Briefly: Pre-emergence herbicidal activity, cool season. To be noted: lowest tested rate with 80% or greater inhibition; rates 300, 100, 30, 10 g/ha; about 14 days. The class given is in vivo, Polygonum convolvulus. The protocol: as §1, §2, §3, §4
Assay [3] concerns VERPE (creeping speedwell). Description: Pre-emergence herbicidal activity, cool season. The class given is in vivo, Veronica persicaria. As to conditions: lowest tested rate with 80% or greater inhibition; rates 300, 100, 30, 10 g/ha; about 14 days. The protocol: as §1, §2, §3, §4
The test system of the next assay is SASKR (russian thistle). Description: Pre-emergence herbicidal activity, cool season. The class given is in vivo, Salsola kali. To be noted: lowest tested rate with 80% or greater inhibition; rates 300, 100, 30, 10 g/ha; about 14 days. The protocol:
as §1, §2, §3, §4

Assay [4] relates to GALAP (catchweed bedstraw). Briefly: Pre-emergence herbicidal activity, cool season. The class given is in vivo, Galium aparine. To be noted: lowest tested rate with 80% or greater inhibition; rates 300, 100, 30, 10 g/ha; about 14 days. The protocol: as §1, §2, §3, §4
The next assay relates to SINAR (wild mustard). Briefly: Pre-emergence herbicidal activity, cool season. The class given is in vivo, Sinapis arvensis. As to conditions: lowest tested rate with 80% or greater inhibition; rates 300, 100, 30, 10 g/ha; about 14 days. The protocol: as §1, §2, §3, §4
The subject of assay [5] is CHEAL (common lambsquarters). Briefly: Pre-emergence herbicidal activity, warm season. The class given is in vivo, Chenopodium album. As to conditions: GR80 = lowest tested rate (300, 100, 30, 10 g/ha) with 80% or greater inhibition; approx. 14 days after treating; 30/21° C. The protocol:
as §1, §2, §3, §4

Another assay deals with DIGSA (large crabgrass). Description: Pre-emergence herbicidal activity, warm season. As to conditions: GR80 = lowest tested rate (300, 100, 30, 10 g/ha) with 80% or greater inhibition; approx. 14 days after treating; 30/21° C. The class given is in vivo, Digitaria sanguinalis. The protocol: as §1, §2, §3, §4
For assay [6], the system named is AGSST (creeping bentgrass). Description: Pre-emergence herbicidal activity, cool season. As to conditions: GR80 = lowest tested rate (300, 100, 30, 10 g/ha) with 80% or greater inhibition; approx. 14 days after treating; 18/13° C. The class given is in vivo, Agrostis stolonifera. The protocol: as §1, §2, §3, §4
The next assay has as its system SETVI (green foxtail). Description: Pre-emergence herbicidal activity, cool season. The class given is in vivo, Setaria viridis. As to conditions: GR80 = lowest tested rate (300, 100, 30, 10 g/ha) with 80% or greater inhibition; approx. 14 days after treating; 18/13° C. The protocol:
as §1, §2, §3, §4

Turning to `CN(C(=O)n1cnc(S(=O)(=O)C(F)F)n1)c1ccccc1` [Example 27], in the assay with ALOMY (blackgrass), the “Pre-emergence activity (GR80) ALOMY” value stood at 300 g/ha. The “Pre-emergence activity (GR80) PANMI” value in assay [1] was determined as 100 g/ha. Besides, the “Pre-emergence activity GR80, LAMPU” value in assay [2] was 300 g/ha. In addition, in the assay with STEME (common chickweed), the “Pre-emergence activity GR80, STEME” value was “[empty]”. Moreover, the “Pre-emergence activity GR80, POLCO” value in the assay with POLCO (wild buckwheat) was determined as 30 g/ha. Moreover, in [3], the “Pre-emergence activity GR80, VERPE” value turned out to be 300 g/ha. In addition, the “Pre-emergence activity GR80, SASKR” value in the assay with SASKR (russian thistle) was 300 g/ha. Moreover, the “Pre-emergence activity GR80, GALAP” value in assay [4] came out at 300 g/ha. Also, the “Pre-emergence activity GR80, SINAR” value in the assay with SINAR (wild mustard) was “[empty]”. The “Pre-emergence activity (GR80) CHEAL” value in [5] worked out at 300 g/ha.
Consider `C#CCN(C)C(=O)n1cnc(S(=O)(=O)C(F)F)n1` [Example 31], for which the “Pre-emergence activity (GR80) DIGSA” value in the assay with DIGSA (large crabgrass) is listed as 300 g/ha. Moreover, the “Pre-emergence activity GR80, LAMPU” value in assay [2] is “[empty]”. In the assay with STEME (common chickweed), the “Pre-emergence activity GR80, STEME” value was “[empty]”. Further, the “Pre-emergence activity GR80, POLCO” value in the assay with POLCO (wild buckwheat) was “[empty]”. The “Pre-emergence activity GR80, VERPE” value in [3] was “[empty]”. The “Pre-emergence activity GR80, SASKR” value in the assay with SASKR (russian thistle) is “[empty]”. In addition, the “Pre-emergence activity GR80, GALAP” value in assay [4] is “[empty]”. In addition, in the assay with SINAR (wild mustard), the “Pre-emergence activity GR80, SINAR” value was “[empty]”.
Consider `O=C(N1CCOCC1)n1cnc(S(=O)(=O)C(F)(F)Br)n1` [Example 36], for which the “Pre-emergence activity GR80, LAMPU” value in assay [2] was 300 g/ha. The “Pre-emergence activity GR80, STEME” value in the assay on STEME (common chickweed) is “[empty]”. Further, in the assay on POLCO (wild buckwheat), the “Pre-emergence activity GR80, POLCO” value was “[empty]”. In assay [3], the “Pre-emergence activity GR80, VERPE” value is “[empty]”. In the assay with SASKR (russian thistle), the “Pre-emergence activity GR80, SASKR” value was “[empty]”. Also, the “Pre-emergence activity GR80, GALAP” value in [4] was found to be 300 g/ha. The “Pre-emergence activity GR80, SINAR” value in the assay with SINAR (wild mustard) was “[empty]”. Further, the “Pre-emergence activity (GR80) CHEAL” value in assay [5] is listed as 300 g/ha.
Take `C=CCN(C)C(=O)n1cnc(S(=O)(=O)C(F)(F)Br)n1` [Example 41]: the “Pre-emergence activity (GR80) ALOMY” value with ALOMY (blackgrass) worked out at 300 g/ha. For the same compound, the “Pre-emergence activity (GR80) PANMI” value in [1] came out at 300 g/ha. Moreover, in assay [6], the “Pre-emergence activity (GR80) AGSST” value came out at 30 g/ha. Also, the “Pre-emergence activity GR80, LAMPU” value in [2] was “[empty]”. For the same compound, the “Pre-emergence activity GR80, STEME” value in the assay with STEME (common chickweed) was “[empty]”. Besides, in the assay on POLCO (wild buckwheat), the “Pre-emergence activity GR80, POLCO” value is “[empty]”. In addition, the “Pre-emergence activity GR80, VERPE” value in [3] was 100 g/ha. Moreover, in the assay on SASKR (russian thistle), the “Pre-emergence activity GR80, SASKR” value was “[empty]”. The “Pre-emergence activity GR80, GALAP” value in assay [4] is “[empty]”. For the same compound, the “Pre-emergence activity GR80, SINAR” value in the assay on SINAR (wild mustard) is “[empty]”.
With `CON(C)C(=O)n1cnc(S(=O)(=O)C(F)(F)Br)n1` [Example 45], the “Pre-emergence activity GR80, LAMPU” value in assay [2] is “[empty]”. Also, the “Pre-emergence activity (GR80) SETVI” value with SETVI (green foxtail) worked out at 300 g/ha. Also, the “Pre-emergence activity GR80, STEME” value in the assay on STEME (common chickweed) turned out to be 300 g/ha. For the same compound, the “Pre-emergence activity GR80, POLCO” value in the assay on POLCO (wild buckwheat) was 100 g/ha. Moreover, the “Pre-emergence activity GR80, VERPE” value in [3] was “[empty]”. In addition, in the assay with SASKR (russian thistle), the “Pre-emergence activity GR80, SASKR” value was “[empty]”. Also, in assay [4], the “Pre-emergence activity GR80, GALAP” value is “[empty]”. For the same compound, the “Pre-emergence activity GR80, SINAR” value with SINAR (wild mustard) is 300 g/ha. Moreover, the “Pre-emergence activity (GR80) CHEAL” value in assay [5] amounted to 300 g/ha.
